Test results: article PMC7226963, “CCN-Based Therapeutic Peptides Modify Pancreatic Ductal Adenocarcinoma Microenvironment and Decrease Tumor Growth in Combination with Chemotherapy” (Cells, 2020)
Like-named read-outs stand apart in the source and are kept apart here.

Columns and labels:
[1] = Gemcitabine and metabolites in tumor and plasma, with or without BLR200 (HPLC-MS); conditions: for Change of concentration (tumor/plasma ratio) in BLR200-treated mice: BLR200 10 µg/kg i.p. every other day from day 11, 4 treatments, gemcitabine 100 mg/kg i.v. single bolus day 17, 30 min and 1 h, n = 4, not statistically significant
Method: FC1199-bearing mice were treated i.p with BLR200 (10 µg/kg) from day 11 for a total of 4 treatments, every other day. On day 17, mice were treated with gemcitabine (100 mg/kg, i.v., single bolus). After 30 min and 1 h, plasma and tumors were collected for HPLC measurement of gemcitabine and metabolites. The plasma fraction added with 10 µL tetrahydrouridine (THU) 2.5 mg/mL was immediately separated by centrifugation at 3200× g for 15 min at 4 °C and stored at −20 °C until analysis. Tumors were immediately frozen in liquid nitrogen and stored at −20 °C until analysis. Extraction and analysis of gemcitabine (dFdc, dFdCTP, and dFdU) in tumors and plasma were carried out according to Bapiro et al. [27].
Briefly, tumors were weighted, spiked with 2′-deossicitidine as the internal standard (IS) at a final concentration of 1 ng/mg, and homogenized with ice-cold acetonitrile (ACN) 50% (v/v) containing THU 25 µg/mL in a Precellys Evolution homogenizer (Bertin Technologies S.A.S., Montigny-le-Bretonneux, France). Fifty microliters of homogenate were added with 200 µL ACN 50% (v/v), vortexed, and centrifuged at 13,200 rpm for 10 min at 4 °C. The supernatant was dried under N2 flux and the residue reconstituted with 100 µL of milliQ water. Concerning plasma, 25 µL were spiked with 1 µL of 10 µg/mL of IS and processed in the same way as tumors. The reconstituted tumors and plasma extracts were analyzed by injecting 2 µL in a UHPLC System connected to a LCMS-8060 (Shimadzu Scientific Instruments, Columbia, MD, USA) with a dual ion source. […] The mass spectrometer worked with an electrospray ionization source operating both in the negative and positive Multiple Reaction Monitoring mode, quantifying target ions m/z 264→59.25 for gemcitabine (positive), m/z 502→158.9 for dFdCTP (negative), m/z 263.1→220 for dFdU (negative), and m/z 228.1→112.05 for IS (positive). The lower limit of quantitation (LOQ) was 0.2 ng/mg for gemcitabine, 0.4 ng/mg for dFdU, and 0.5 ng/mg for dFdCTP in tumor samples, while it was 0.01 µg/mL for gemcitabine and 0.02 µg/mL for dFdU in plasma samples.

FC1199 cells = test: FC1199 proliferation assay (crystal violet); format: cell-based, murine; conditions: Mus musculus, 72 h, 72 h incubation, mean and SD of two experiments, read-out: IC50 of gemcitabine on FC1199 cell proliferation
Method: FC1199 were seeded into 96-well plates in DMEM supplemented with 5% FCS. At 24 h after seeding, cells were exposed to increasing concentrations of BLR100 and BLR200 alone or in combination with increasing concentrations of gemcitabine. After a 72 h incubation, cells were fixed and stained with crystal violet solution (Sigma–Aldrich, Merck Life Science, Milano, Italy). The staining was eluted with a 1:1 ethanol/0.1 M sodium citrate solution, and the absorbance at 595 nm was measured. Each condition was tested in triplicate.

FC1199 orthotopic tumors = test: Orthotopic FC1199 PDAC model: tumor burden (pancreas weight) and ascites; format: in vivo, C57BL/6 mice; conditions: peptides 4.5 µg/kg i.p. from day 11 or gemcitabine 40 mg/kg i.v.; n = 7
Method: Six- to eight-week old female C57BL/6 mice (Charles River Laboratories, Lecco, Italy) were maintained under specific-pathogen-free conditions, with constant temperature and humidity, and handled using aseptic procedures. FC1199 cells (5 × 10^4) were implanted orthotopically in the pancreas as described. Gemcitabine was administered i.v. at 40 mg/kg (see scheme in Figure 4A). Control groups received the same volume of vehicle. Mice were weighed every other day as a measure of drug toxicity. […] Tumor burden was evaluated at the end of the experiment, as pancreas weight. Peritoneal ascitic fluid was collected with a syringe and the volume recorded. Animals with a collectable peritoneal fluid (≥100 µL) were considered positive for ascites. Liver of mice were analyzed for macroscopic metastases, and no metastatic foci was detected in any group.

KPC tumor = conditions: LSL-KrasG12D/+;LSL-Trp53R172H/+;Pdx-1-Cre (KPC) mice; cited from earlier work
Excerpt: (§1) CCN2 has recently been proposed as a target for PDAC therapy. […] FG-3019 (pamrevlumab) is currently in a Phase 3 clinical trial to evaluate its efficacy and safety as neoadjuvant treatment in combination with gemcitabine plus nab-paclitaxel in the treatment of locally advanced, unresectable pancreatic cancer.

PANC-1 orthotopic = PANC-1 orthotopic preclinical model; cited from earlier work
Excerpt: as §1

Molecule: Nc1ccn([C@@H]2O[C@H](COP(=O)(O)OP(=O)(O)OP(=O)(O)O)[C@@H](O)C2(F)F)c(=O)n1 [dFdCTP, gemcitabine triphosphate]
- Concentration of the metabolite in tumors and plasma ([1]; gemcitabine 100 mg/kg i.v. single bolus, with or without BLR200 10 µg/kg, 30 min and 1 h, LOQ 0.5 ng/mg in tumor): undetectable in both groups

Molecule: O=c1ccn([C@@H]2O[C@H](CO)[C@@H](O)C2(F)F)c(=O)[nH]1 [dFdU, 2′,2′-difluorodeoxyuridine]
- Change of concentration (tumor/plasma ratio) in BLR200-treated mice [1]: small increase

Molecule: Nc1ccn([C@@H]2O[C@H](CO)[C@@H](O)C2(F)F)c(=O)n1 [gemcitabine, Gemcitabine]
- IC50 (FC1199 cells; gemcitabine alone, DMEM 5% FCS, absorbance 595 nm): 13.5 ± 4.6 nM
- IC50 (FC1199 cells; gemcitabine with BLR100 20 nM): 13.2 ± 3.9 nM
- IC50 (FC1199 cells; gemcitabine with BLR100 100 nM): 11.9 ± 3.7 nM
- Change of concentration (tumor/plasma ratio) in BLR200-treated mice [1]: small increase
- Effect on tumor growth as monotherapy, late start (FC1199 orthotopic tumors): only a marginal effect on tumor growth

B1: FG-3019: CCN2-targeting mAb (antibody, chains of the INN, looked up, V domains shown)
VH: EGQLVQSGGGLVHPGGSLRLSCAGSGFTFSSYGMHWVRQAPGKGLEWVSGIGTGGGTYSTDSVKGRFTISRDNAKNSLYLQMNSLRAEDMAVYYCARGDYYGSGSFFDCWGQGTLVTVSS
VL: DIQMTQSPSSLSASVGDRVTITCRASQGISSWLAWYQQKPEKAPKSLIYAASSLQSGVPSRFSGSGSGTDFTLTISSLQPEDFATYYCQQYNSYPPTFGQGTKLEIK
- Tumor response to gemcitabine (KPC tumor): enhanced tumor response
- Tumor growth and metastasis (PANC-1 orthotopic): inhibited tumor growth and metastasis
